From patent US11697648B2, “Fused pyrimidine pyridinone compounds as JAK inhibitors” (THERAVANCE BIOPHARMA R&D IP, LLC, priority 2019, dated 2023)

Tests used:
Tyk2 = Tyk2 (Homo sapiens (Human), UniProt P29597); test: Biochemical Tyk2 kinase assay (LanthaScreen)
Method in brief: (§1)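 GST-JAK + GFP-STAT1 peptide, HEPES pH 7.5/MgCl2/EGTA/Brij-35 buffer; cpd preincubation 1 h RT; ATP start, 1 h RT; stop with 10 mM EDTA + 2 nM Tb-anti-pSTAT1; TR-FRET 520/495. 4-parameter IC50 → pKi (Cheng-Prusoff).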

[1] = tested on: IL-2 stimulated STAT5 phosphorylation in Tall-1 human T cell line (JAK3); test: Cellular JAK3 potency assay: inhibition of IL-2 stimulated pSTAT5 in Tall-1 T cells; type: cell-based; conditions: IL-2 stimulated pSTAT5, Tall-1 T cells
Method in brief: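 Tall-1 cells, 45,000 per well, preincubated 1 hour with compound at 37 °C, then stimulated 30 minutes with IL-2 at 300 ng/ml final. pSTAT5 (Tyr694/699) in lysates quantified by AlphaLISA SureFire Ultra. pIC50 derived from inhibition curves, given as mean with SD.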

[2] = Colon and plasma mouse pharmacokinetics; type: in vivo; conditions: mouse, colon tissue / plasma; male Balb/c mice, 10 mg/kg PO; ratio of the colon AUC to the plasma AUC
Method in brief: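 Male Balb/c mice given 10 mg/kg PO in 1% HPMC + 0.1% Tween-80; plasma, colon tissue and colon contents taken at 0.5, 2 and 6 h, quantified by LC/MS/MS. Non-compartmental analysis on means of 2 animals/time point; colon:plasma ratio taken as colon AUC over plasma AUC.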

JAK2 = JAK2 (Homo sapiens (Human), UniProt O60674); test: Biochemical JAK2 kinase assay (LanthaScreen)
Method in brief: as §1

JAK3 = JAK3 (Homo sapiens (Human), UniProt P52333); test: Biochemical JAK3 kinase assay (LanthaScreen); conditions: for JAK3 (pKi)-JAK1 (pKi): selectivity JAK3 over JAK1, difference of pKi
Method in brief: as §1

JAK1 = JAK1 (Homo sapiens (Human), UniProt P23458); test: Biochemical JAK1 kinase assay (LanthaScreen)
Method in brief: as §1

JAK1, sequence (P23458 whole entry): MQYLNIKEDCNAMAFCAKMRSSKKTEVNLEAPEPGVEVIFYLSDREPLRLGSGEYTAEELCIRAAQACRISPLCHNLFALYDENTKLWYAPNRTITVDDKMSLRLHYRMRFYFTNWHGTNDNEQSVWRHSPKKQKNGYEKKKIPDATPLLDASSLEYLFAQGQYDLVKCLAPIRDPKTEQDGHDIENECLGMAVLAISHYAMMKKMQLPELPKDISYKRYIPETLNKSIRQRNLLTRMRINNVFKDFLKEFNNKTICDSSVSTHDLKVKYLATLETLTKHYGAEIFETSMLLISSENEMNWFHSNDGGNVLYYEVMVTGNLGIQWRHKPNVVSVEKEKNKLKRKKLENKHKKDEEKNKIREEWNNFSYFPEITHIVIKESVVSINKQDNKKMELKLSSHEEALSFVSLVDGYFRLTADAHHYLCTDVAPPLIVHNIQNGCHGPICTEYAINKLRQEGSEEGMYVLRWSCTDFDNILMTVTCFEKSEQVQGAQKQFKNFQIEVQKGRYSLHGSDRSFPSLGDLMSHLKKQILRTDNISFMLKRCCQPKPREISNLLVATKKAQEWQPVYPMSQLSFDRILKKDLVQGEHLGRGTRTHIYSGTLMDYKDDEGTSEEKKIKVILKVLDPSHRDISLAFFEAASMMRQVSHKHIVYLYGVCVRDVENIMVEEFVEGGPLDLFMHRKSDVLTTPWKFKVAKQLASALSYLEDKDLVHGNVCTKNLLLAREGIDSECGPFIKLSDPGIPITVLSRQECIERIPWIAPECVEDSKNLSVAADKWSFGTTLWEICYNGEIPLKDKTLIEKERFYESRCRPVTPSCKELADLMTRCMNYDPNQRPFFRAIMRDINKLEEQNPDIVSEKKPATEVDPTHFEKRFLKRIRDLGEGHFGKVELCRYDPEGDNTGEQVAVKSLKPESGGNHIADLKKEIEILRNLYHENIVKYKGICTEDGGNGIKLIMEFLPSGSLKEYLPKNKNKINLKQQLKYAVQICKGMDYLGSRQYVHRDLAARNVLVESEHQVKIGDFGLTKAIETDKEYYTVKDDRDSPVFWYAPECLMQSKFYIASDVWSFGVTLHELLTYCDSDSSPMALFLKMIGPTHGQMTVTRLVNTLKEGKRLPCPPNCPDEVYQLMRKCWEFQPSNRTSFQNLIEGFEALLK
Tyk2, sequence (P29597 whole entry): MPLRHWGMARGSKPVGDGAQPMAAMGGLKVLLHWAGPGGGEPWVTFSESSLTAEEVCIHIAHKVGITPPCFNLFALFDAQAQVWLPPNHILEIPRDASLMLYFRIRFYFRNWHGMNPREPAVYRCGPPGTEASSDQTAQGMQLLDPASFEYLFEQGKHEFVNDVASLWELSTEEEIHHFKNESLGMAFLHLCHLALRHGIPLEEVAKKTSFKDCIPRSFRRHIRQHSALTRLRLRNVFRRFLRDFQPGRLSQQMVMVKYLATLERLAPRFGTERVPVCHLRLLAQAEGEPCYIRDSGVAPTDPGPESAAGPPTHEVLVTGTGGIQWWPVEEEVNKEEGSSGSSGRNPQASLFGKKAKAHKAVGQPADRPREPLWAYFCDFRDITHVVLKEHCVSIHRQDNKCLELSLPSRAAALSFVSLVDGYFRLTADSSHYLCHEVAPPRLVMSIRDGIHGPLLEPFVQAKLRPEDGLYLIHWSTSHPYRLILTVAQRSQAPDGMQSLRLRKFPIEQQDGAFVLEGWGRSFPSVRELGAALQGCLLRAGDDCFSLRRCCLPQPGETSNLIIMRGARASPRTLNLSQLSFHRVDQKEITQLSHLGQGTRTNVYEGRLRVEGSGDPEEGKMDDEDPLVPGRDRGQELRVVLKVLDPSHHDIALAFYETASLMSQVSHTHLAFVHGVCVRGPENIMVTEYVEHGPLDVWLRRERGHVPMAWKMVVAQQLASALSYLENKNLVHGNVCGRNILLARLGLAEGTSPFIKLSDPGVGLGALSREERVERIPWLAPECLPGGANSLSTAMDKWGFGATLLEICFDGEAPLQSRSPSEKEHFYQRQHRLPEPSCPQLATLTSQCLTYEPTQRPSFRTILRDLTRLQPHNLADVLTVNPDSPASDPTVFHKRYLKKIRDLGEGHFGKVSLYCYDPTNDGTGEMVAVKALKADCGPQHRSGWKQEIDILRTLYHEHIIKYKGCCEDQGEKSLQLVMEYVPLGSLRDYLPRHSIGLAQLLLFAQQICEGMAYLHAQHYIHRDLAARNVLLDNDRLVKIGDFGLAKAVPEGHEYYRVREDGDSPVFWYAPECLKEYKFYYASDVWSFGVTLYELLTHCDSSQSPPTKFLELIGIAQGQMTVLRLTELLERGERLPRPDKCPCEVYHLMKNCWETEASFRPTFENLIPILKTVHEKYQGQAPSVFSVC
JAK3, sequence (P52333 whole entry): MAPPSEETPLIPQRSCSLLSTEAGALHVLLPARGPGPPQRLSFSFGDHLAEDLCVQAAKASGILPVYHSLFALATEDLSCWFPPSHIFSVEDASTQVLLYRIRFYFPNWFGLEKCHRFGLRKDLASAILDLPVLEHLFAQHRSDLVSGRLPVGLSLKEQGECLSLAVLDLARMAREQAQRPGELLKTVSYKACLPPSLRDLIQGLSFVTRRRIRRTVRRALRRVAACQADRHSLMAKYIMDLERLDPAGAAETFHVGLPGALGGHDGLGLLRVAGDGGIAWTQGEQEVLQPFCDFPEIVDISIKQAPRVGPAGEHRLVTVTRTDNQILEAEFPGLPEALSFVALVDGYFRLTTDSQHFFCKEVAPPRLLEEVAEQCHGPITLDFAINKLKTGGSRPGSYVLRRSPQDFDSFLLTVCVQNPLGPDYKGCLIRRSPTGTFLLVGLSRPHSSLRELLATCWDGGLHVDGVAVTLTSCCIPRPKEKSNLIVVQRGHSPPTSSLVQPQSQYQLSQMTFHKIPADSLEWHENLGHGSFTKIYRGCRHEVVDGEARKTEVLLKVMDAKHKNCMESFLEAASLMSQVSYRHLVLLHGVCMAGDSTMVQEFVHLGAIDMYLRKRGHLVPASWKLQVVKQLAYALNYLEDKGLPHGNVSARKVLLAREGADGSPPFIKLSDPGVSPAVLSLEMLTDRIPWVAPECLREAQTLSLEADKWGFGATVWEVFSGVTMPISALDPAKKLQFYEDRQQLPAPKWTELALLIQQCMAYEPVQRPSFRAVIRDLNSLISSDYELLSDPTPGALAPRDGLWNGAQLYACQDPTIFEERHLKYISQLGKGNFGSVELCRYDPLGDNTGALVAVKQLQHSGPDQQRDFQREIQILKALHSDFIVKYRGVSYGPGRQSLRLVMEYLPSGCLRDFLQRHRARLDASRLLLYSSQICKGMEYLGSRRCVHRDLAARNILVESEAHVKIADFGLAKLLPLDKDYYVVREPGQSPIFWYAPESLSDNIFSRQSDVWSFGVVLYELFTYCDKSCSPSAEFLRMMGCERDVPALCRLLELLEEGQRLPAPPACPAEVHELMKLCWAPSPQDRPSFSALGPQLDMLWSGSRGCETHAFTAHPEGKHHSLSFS
JAK2, sequence (O60674 whole entry): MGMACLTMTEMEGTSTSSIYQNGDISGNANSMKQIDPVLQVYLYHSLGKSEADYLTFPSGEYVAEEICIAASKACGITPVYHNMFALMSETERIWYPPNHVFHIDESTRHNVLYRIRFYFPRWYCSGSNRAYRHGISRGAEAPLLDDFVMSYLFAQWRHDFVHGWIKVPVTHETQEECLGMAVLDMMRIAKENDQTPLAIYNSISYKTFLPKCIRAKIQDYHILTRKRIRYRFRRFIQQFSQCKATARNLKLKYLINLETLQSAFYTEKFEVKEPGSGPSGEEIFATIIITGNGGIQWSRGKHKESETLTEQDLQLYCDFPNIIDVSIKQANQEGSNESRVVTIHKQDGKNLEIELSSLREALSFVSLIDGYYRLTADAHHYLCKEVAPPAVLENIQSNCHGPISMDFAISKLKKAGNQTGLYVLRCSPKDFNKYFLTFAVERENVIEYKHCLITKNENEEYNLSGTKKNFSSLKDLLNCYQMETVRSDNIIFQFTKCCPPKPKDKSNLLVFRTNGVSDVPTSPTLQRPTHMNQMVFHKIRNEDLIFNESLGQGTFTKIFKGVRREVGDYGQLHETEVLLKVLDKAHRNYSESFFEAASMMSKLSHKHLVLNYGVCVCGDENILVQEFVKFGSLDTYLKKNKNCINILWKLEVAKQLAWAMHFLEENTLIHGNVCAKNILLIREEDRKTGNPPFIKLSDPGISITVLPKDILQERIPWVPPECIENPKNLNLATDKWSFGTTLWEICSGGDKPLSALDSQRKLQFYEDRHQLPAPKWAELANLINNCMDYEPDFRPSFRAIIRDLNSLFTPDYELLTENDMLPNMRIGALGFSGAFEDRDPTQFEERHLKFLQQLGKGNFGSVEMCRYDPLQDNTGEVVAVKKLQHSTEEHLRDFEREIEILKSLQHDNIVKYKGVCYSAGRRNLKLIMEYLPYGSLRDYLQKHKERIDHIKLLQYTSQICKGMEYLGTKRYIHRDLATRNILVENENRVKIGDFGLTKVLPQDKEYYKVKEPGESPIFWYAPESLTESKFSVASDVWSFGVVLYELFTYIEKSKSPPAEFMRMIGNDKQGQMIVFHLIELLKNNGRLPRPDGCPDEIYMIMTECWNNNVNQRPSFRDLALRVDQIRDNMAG

Row | Compound | Tyk 2 (pKi) (Tyk2) | Tall-1 (pIC50) [1] | Kp [2] | JAK 2 (pKi) (JAK2) | JAK 3 (pKi) (JAK3) | JAK3 (pKi)-JAK1 (pKi) (JAK3) | JAK 1 (pKi) (JAK1)
1 | C=CC(=O)N1CC(CCn2c(=O)ccc3cnc(Nc4cccc(CN5CCN(C(=O)N(C)C)CC5)c4)nc32)C1 [Example 5, 4-(3-((8-(2-(1-acryloylazetidin-3-yl)ethyl)-7-oxo-7,8-dihydropyrido[2,3-d]pyrimidin-2-yl)amino)benzyl)-N,N-dimethylpiperazine-1-carboxamide] | E (E represents a pKi value of 7 or below (Ki of 100 nM or above)) | B (B represents a pC50 value between 6.7 (included) and 7.5 (IC50 between 200 nM and 32 nM)) | > 100 | E (E represents a pKi value of 7 or below (Ki of 100 nM or above)) | A (A represents a pKi value≥10 (Ki≤0.1 nM)) | A (A represents a value of 3 or above) | E (E represents a pKi value of 7 or below (Ki of 100 nM or above))
2 | C=CC(=O)N1CCN(CCn2c(=O)ccc3cnc(Nc4cnn(C)c4)nc32)[C@@H](CC)C1 [Example 12, (S)-8-(2-(4-acryloyl-2-ethylpiperazin-1-yl)ethyl)-2-((1-methyl-1H-pyrazol-4-yl)amino)pyrido[2,3-d]pyrimidin-7(8H)-one] | E (E represents a pKi value of 7 or below (Ki of 100 nM or above)) | B (B represents a pC50 value between 6.7 (included) and 7.5 (IC50 between 200 nM and 32 nM)) | > 50 | E (E represents a pKi value of 7 or below (Ki of 100 nM or above)) | B (B represents pKi value between 9 and 10 (Ki between 1 nM and 0.1 nM)) | A (A represents a value of 3 or above) | E (E represents a pKi value of 7 or below (Ki of 100 nM or above))
3 | C=CC(=O)N1CCN(CCn2c(=O)ccc3cnc(Nc4ccc(N5CCN(C(=O)CCSC)CC5)cc4)nc32)CC1 [Example 4, 8-(2-(4-acryloylpiperazin-1-yl)ethyl)-2-((4-(4-(3-(methylthio)propanoyl)piperazin-1-yl)phenyl)amino)pyrido[2,3-d]pyrimidin-7(8H)-one] | E (E represents a pKi value of 7 or below (Ki of 100 nM or above)) | B (B represents a pC50 value between 6.7 (included) and 7.5 (IC50 between 200 nM and 32 nM)) | > 1000 | E (E represents a pKi value of 7 or below (Ki of 100 nM or above)) | B (B represents pKi value between 9 and 10 (Ki between 1 nM and 0.1 nM)) | A (A represents a value of 3 or above) | E (E represents a pKi value of 7 or below (Ki of 100 nM or above))
4 | C=CC(=O)N1CCN(CCn2c(=O)ccc3cnc(Nc4ccc(N5CCN(C)CC5)cc4)nc32)CC1 [Example 1, 8-(2-(4-acryloylpiperazin-1-yl)ethyl)-2-((4-(4-methylpiperazin-1-yl)phenyl)amino)pyrido[2,3-d]pyrimidin-7(8H)-one] | E (E represents a pKi value of 7 or below (Ki of 100 nM or above)) | B (B represents a pC50 value between 6.7 (included) and 7.5 (IC50 between 200 nM and 32 nM)) | > 1000 | E (E represents a pKi value of 7 or below (Ki of 100 nM or above)) | B (B represents pKi value between 9 and 10 (Ki between 1 nM and 0.1 nM)) | A (A represents a value of 3 or above) | E (E represents a pKi value of 7 or below (Ki of 100 nM or above))
5 | C=CC(=O)N1CC(CCn2c(=O)ccc3cnc(Nc4ccc(N5CCN(C(=O)CSC)CC5)cc4)nc32)C1 [Example 13, 8-(2-(1-acryloylazetidin-3-yl)ethyl)-2-((4-(4-(2-(methylthio)acetyl)piperazin-1-yl)phenyl)amino)pyrido[2,3-d]pyrimidin-7(8H)-one] | E (E represents a pKi value of 7 or below (Ki of 100 nM or above)) | B (B represents a pC50 value between 6.7 (included) and 7.5 (IC50 between 200 nM and 32 nM)) | > 1000 | E (E represents a pKi value of 7 or below (Ki of 100 nM or above)) | B (B represents pKi value between 9 and 10 (Ki between 1 nM and 0.1 nM)) | A (A represents a value of 3 or above) | E (E represents a pKi value of 7 or below (Ki of 100 nM or above))
6 | C=CC(=O)N1CC(CCn2c(=O)ccc3cnc(Nc4ccc(N5CCN(C(C)=O)CC5)cc4)nc32)C1 [Example 2, 2-((4-(4-acetylpiperazin-1-yl)phenyl)amino)-8-(2-(1-acryloylazetidin-3-yl)ethyl)pyrido[2,3-d]pyrimidin-7(8H)-one] | E (E represents a pKi value of 7 or below (Ki of 100 nM or above)) | B (B represents a pC50 value between 6.7 (included) and 7.5 (IC50 between 200 nM and 32 nM)) | > 100 | E (E represents a pKi value of 7 or below (Ki of 100 nM or above)) | A (A represents a pKi value≥10 (Ki≤0.1 nM)) | A (A represents a value of 3 or above) | E (E represents a pKi value of 7 or below (Ki of 100 nM or above))
7 | C=CC(=O)N1CC(CCn2c(=O)ccc3cnc(Nc4cccc(N5CCN(C(=O)CCSC)CC5)c4)nc32)C1 [Example 7, 8-(2-(1-acryloylazetidin-3-yl)ethyl)-2-((3-(4-(3-(methylthio)propanoyl)piperazin-1-yl)phenyl)amino)pyrido[2,3-d]pyrimidin-7(8H)-one] | E (E represents a pKi value of 7 or below (Ki of 100 nM or above)) | B (B represents a pC50 value between 6.7 (included) and 7.5 (IC50 between 200 nM and 32 nM)) | > 100 | E (E represents a pKi value of 7 or below (Ki of 100 nM or above)) | B (B represents pKi value between 9 and 10 (Ki between 1 nM and 0.1 nM)) | A (A represents a value of 3 or above) | E (E represents a pKi value of 7 or below (Ki of 100 nM or above))
